We go through 19 compounds from patent US7166296B2, “Pharmaceutical formulations and ligands for use therein; mimetics for UEA-1” (Sarlan, Ltd., priority 2001, dated 2007).

Each structure is given as a SMILES string. Values after ≈ are worked out from the molar mass of the structure shown. Structures can show the parent of a compound that is named as a salt.

The test system of assay [1] is UEA-1 binding sites on Caco-2 cell membrane preparations. The assay is described as follows: Two tier competition assay: compound incubated alone with membranes, biotinylated UEA-1 added in next step. On the set-up: species or system human. As to conditions: for Av % Inhibition / Avg % Inhibition: Two Tier Assay; for Av % Inhibition: library MSI 22; for Avg % Inhibition: library MSI 26. As for the experimental part:
(§1) The epithelial cell binding ability of compounds and mixtures obtained from synthetic combinatorial libraries was determined by competition assays. These assays were set up to measure the inhibition of binding of biotinylated UEA-1 to membrane preparations of the epithelial cell line Caco-2 (colon carcinoma cells-2), by compounds and mixtures of the combinatorial libraries. This cell line is a conventional model for epithelial cells.
(§2) Two competition inhibition assays were used in this case, namely single tier and two tier assays. These assays differed from each other in that in the single tier assay, the mixtures/compounds and the biotinylated UEA-1 were incubated together with the Caco-2 cell membrane preparations, while in case of the two-tier assay, the mixture/compounds were allowed to incubate alone with the cell membranes in the absence of biotinylated UEA-1, which was added in the next step. Addition of the extra step in the two-tier assay was to ensure that the compounds inhibiting the binding of biotinylated UEA-1 to the Caco-2 cell membranes were doing so by themselves binding to surface receptors on the Caco-2 cells and not to the biotinylated UEA-1. Each assay will be described in detail.
(§3) • 1. Confluent Caco-2 cell monolayers (grown in 75 cm^2 flasks for up to 1 week at 37° C. and 5% CO2) were washed twice in Dulbecco's PBS (DPBS). • 2. Cell monolayers were treated with 10 mM EDTA-DPBS for 5–10 min at 37° C. and cells were harvested by centrifugation at 1000 rpm for 5 min. • 3. Cells were washed 3 times in DPBS. • 4. […] The cells were homogenised for 30 sec. • 6. The homogenates were centrifuged in hard walled tubes at 40,000 rpm for 45 min at 4° C. • 7. […] The supernatant was removed and stored on ice. The procedure was repeated adding the second supernatant to the first. • 8. The protein concentration was determined using e.g. a Bio-Rad protein assay. • 9. All fractions were stored at −80° C. prior to use. Single Tier Assays: • 1. 96-well microtiter plates were coated with membrane preparations of Caco-2 cells either by allowing them to incubate on the plates for 2½ hours at room temperature or by incubating them overnight at 4° C. 100 μl of 10 μg/ml (in 0.05 M carbonate buffer, pH 9.6) of membrane preparation was added to each well. • 2. The plates were flicked out, patted dry and blocked with bovine serum albumin (BSA)/DPBS (200 μl/well) for 1 to 4 hours at room temperature after which they were washed three times in water. • 3. […] Control wells were also set up in which the Caco-2 cell membrane preparations were incubated with unconjugated UEA-1. […] Following overnight incubation the plates were washed thoroughly (3–6 times). The plates were flicked out, patted dry and biotinylated UEA-1 was detected with commercial Streptavidin conjugated to horseradish peroxidase (HRP) (CalBiochem). […] The plates were left to incubate for an hour at room temperature. • 6. The plates were then washed 3–6 times and the biotin-streptavidin binding was detected by adding an HRP substrate OPD (orthophenyl diamine) to each well. 100 μl/well of this substrate at a final concentration of 1.6 mg/ml was added to each well. Before adding to the wells, this substrate was activated by addition of 50 μl of 3% H2O2 per plate and the reaction was allowed to develop in the dark. • 7. The reaction was stopped by adding 50 μl of 4 N H2SO4 to each well after approximately 5–10 minutes or when sufficient colour had developed. The OD490 (absorbance at 490 nm) of each well was measured using a conventional 96 well plate reading spectrophotometer. Two Tier Assays: • 1. 96 well plates were coated with Caco-2 cell membrane preparations in the same manner as described in the single tier assay. • 2. […] 100 μl at these final concentrations were added to each well. • 4. The plates were then left to incubate overnight, a step that would allow the mixtures and compounds to interact with the Caco-2 cell membranes without the presence of the competitor (biotinylated UEA-1) itself. • 5. […]

Assay [2] has the same test system. The experiment in a line: Single tier competition assay: inhibition of biotinylated UEA-1 binding, compound and biotinylated UEA-1 incubated together. On the set-up: species or system human. As to conditions: for Av % Inhibition / Avg % Inhibtion: Single Tier Assay; for Av % Inhibition: library MSI 22; for Avg % Inhibtion: library MSI 26. As for the experimental part: as §1, §2, §3

Setting [3] is: library MSI 27, read-out: Two Tier Assay IC50.
The mark [4] stands for this setting: library MSI 27, read-out: Single Tier Assay IC50.

For the compound `COc1ccc(C(=O)NCCCCC(NC(=O)C(CCCCNC(=O)c2ccc(OC)c(OC)c2)NC(=O)C(CCCCNC(=O)c2ccc(OC)c(OC)c2)NC(C)=O)C(N)=O)cc1OC` (stereo not shown) [Cpd 50], the “Two Tier Assay IC50” value in assay [1] (library MSI 27) worked out at 42.79 mg/L. The IC50 in assay [1] (setting [3]) is 45.7 µM; in assay [2] (setting [4]), 82.4 µM. Also, the “Single Tier Assay IC50” value in assay [2] (library MSI 27) is 77.09 mg/L.

On to `CCOc1cc(C(=O)NCCCCC(NC(=O)C(CCCCNC(=O)c2cc(OCC)c(OCC)c(OCC)c2)NC(=O)C(CCCCNC(=O)c2cc(OCC)c(OCC)c(OCC)c2)NC(C)=O)C(N)=O)cc(OCC)c1OCC` (stereo not shown) [Cpd 51], for which the IC50 in assay [1] (setting [3]) and in assay [2] (setting [4]) was 217 µM throughout.

As for `COc1cc(C(=O)NCCCCC(NC(=O)C(CCCCNC(=O)c2cc(OC)c(OC)c(OC)c2)NC(=O)C(CCCCNC(=O)c2cc(OC)c(OC)c(OC)c2)NC(C)=O)C(N)=O)cc(OC)c1OC` (stereo not shown) [Cpd 52], in assay [1] (library MSI 27), the “Two Tier Assay IC50” value was found to be 226.70 mg/L. The IC50 in assay [1] (setting [3]) was 221 µM; in assay [2] (setting [4]), 170 µM. The “Single Tier Assay IC50” value in assay [2] (library MSI 27) came to 174.80 mg/L.

Take `CCOC(=O)Oc1c(OC)cc(C(=O)NCCCCC(NC(=O)C(CCCCNC(=O)c2cc(OC)c(OC(=O)OCC)c(OC)c2)NC(=O)C(CCCCNC(=O)c2cc(OC)c(OC(=O)OCC)c(OC)c2)NC(C)=O)C(N)=O)cc1OC` (stereo not shown) [Cpd 53]: the “Two Tier Assay IC50” value in assay [1] (library MSI 27) amounted to 114.80 mg/L. Also, the IC50 was 95.7 µM in assay [1] (setting [3]) and 75.1 µM in assay [2] (setting [4]). Further, the “Single Tier Assay IC50” value in assay [2] (library MSI 27) was 90.15 mg/L.

Turning to `CC(=O)NC(CCCCNC(=O)c1cc(O)c(O)c(O)c1)C(=O)NC(CCCCNC(=O)c1cc(O)c(O)c(O)c1)C(=O)NC(CCCCNC(=O)c1cc(O)c(O)c(O)c1)C(N)=O` (stereo not shown) [Cpd 54], the “IC 50 (ug/ml) 2nd tier” value in assay [1] (Table 8, galloyl constructs) was found to be 2 µg/mL (≈ 2.22 µM). Further, the IC50 in assay [1] (Table 8, galloyl constructs, read-out: IC 50 (uM) 2nd tier) was 3 µM; in assay [1] (setting [3]), 3.33 µM; in assay [2] (Table 8, galloyl constructs, read-out: IC 50 (uM) 1st tier (converted)) it was 5 µM; in assay [2] (setting [4]), 7.61 µM. In addition, the “Two Tier Assay IC50” value in assay [1] (library MSI 27) came out at 3.00 mg/L. Besides, the “IC 50 (ug/ml) 1st tier” value in assay [2] (Table 8, galloyl constructs) is 4 µg/mL (≈ 4.44 µM). Also, the “Single Tier Assay IC50” value in assay [2] (library MSI 27) was found to be 6.85 mg/L.

For `CC(=O)NC(CCCCNC(=O)c1ccc(O)cc1)C(=O)NC(CCCCNC(=O)c1ccc(O)cc1)C(=O)NC(CCCCNC(=O)c1ccc(O)cc1)C(N)=O` (stereo not shown) [Cpd 55], the IC50 in assay [1] (setting [3]) and in assay [2] (setting [4]) was 311 µM each time.

In the case of `CC(=O)NC(CCCCNC(=O)c1cc(O)cc(O)c1)C(=O)NC(CCCCNC(=O)c1cc(O)cc(O)c1)C(=O)NC(CCCCNC(=O)c1cc(O)cc(O)c1)C(N)=O` (stereo not shown) [Cpd 56], the “Two Tier Assay IC50” value in assay [1] (library MSI 27) turned out to be 125.00 mg/L. The IC50 in assay [1] (setting [3]) and in assay [2] (setting [4]) was 147 µM in each case. Also, in assay [2] (library MSI 27), the “Single Tier Assay IC50” value was determined as 125.00 mg/L.

With `CNC[C@@H](Cc1ccc2ccccc2c1)N(C)C[C@H](NC(=O)c1cc(O)c(O)c(O)c1)C(C)C` [D-Napala, D-Val, Gallic Acid], the “Av % Inhibition” value is on record as 24.2% in assay [1] (62.5 μg/ml), 46.9% in assay [1] (250 μg/ml), 4.7% in assay [2] (62.5 μg/ml) and 26.8% in assay [2] (250 μg/ml).

Regarding `CNC[C@@H](Cc1ccc2ccccc2c1)N(C)C[C@H](Cc1ccc(Cl)cc1)NC(=O)c1cc(O)c(O)c(O)c1` [D-Napala, L-pCl-Phe, Gallic Acid], the “Av % Inhibition” value in assay [1] (62.5 μg/ml) is reported as 23.4%; in assay [1] (250 μg/ml), 43.3%; in assay [2] (62.5 μg/ml), −14.7%; in assay [2] (250 μg/ml), 7.4%.

On to `CCC[C@H](CNC)N(C)C[C@H](NC(=O)c1cc(O)c(O)c(O)c1)C(C)C` [D-Nve, D-Val, Gallic Acid], for which the “Av % Inhibition” value came to 12.1% in assay [1] (62.5 μg/ml), 29.8% in assay [1] (250 μg/ml), 13.7% in assay [2] (62.5 μg/ml) and 46% in assay [2] (250 μg/ml).

For the compound `CCC[C@H](CNC)N(C)C[C@@H](CC1CCCCC1)NC(=O)c1cc(O)c(O)c(O)c1` [D-Nve, D-chAla, Gallic Acid], the “Av % Inhibition” value in assay [1] (62.5 μg/ml) was 20.6%; in assay [1] (250 μg/ml), 48.5%; in assay [2] (62.5 μg/ml), 22.0%; in assay [2] (250 μg/ml) it was 47.8%.

Consider `CCOc1ccc(C[C@H](CNC)N(C)C[C@@H](CCCNC(=N)NS(=O)(=O)c2ccc(C)cc2)NC(=O)c2cc(O)c(O)c(O)c2)cc1` [D-Tyr (Et), D-Arg(Tos), Gallic Acid], for which the “Av % Inhibition” value in assay [1] (62.5 μg/ml) was found to be 30%; in assay [1] (250 μg/ml) it was 61%; in assay [2] (62.5 μg/ml), 27.2%; in assay [2] (250 μg/ml), 48%.

As to `CCOc1ccc(C[C@H](CNC)N(C)C[C@H](CC2CCCCC2)NC(=O)c2cc(O)c(O)c(O)c2)cc1` [D-Tyr (Et), L-chAla, Gallic Acid], the “Av % Inhibition” value in assay [1] (62.5 μg/ml) stood at 31.8%; in assay [1] (250 μg/ml), 52.7%; in assay [2] (62.5 μg/ml) it was 8.5%; in assay [2] (250 μg/ml), 33.3%.

For `COc1cc(C(=O)OCCCN2CCCN(CCCOC(=O)c3cc(OC)c(OC)c(OC)c3)CC2)cc(OC)c1OC` [Dilazep dihydrochloride, reference compound], the “Avg % Inhibition” value in assay [1] (62.5 μg/ml) and in assay [1] (250 μg/ml) was −25% throughout. Also, the “Avg % Inhibtion” value in assay [2] (62.5 μg/ml) is listed as 14.7%; in assay [2] (250 μg/ml), 10.4%.

Take `Oc1cc(O)c2c(c1)O[C@H](c1cc(O)c(O)c(O)c1)[C@H](O)C2` [Epigallocatechin, reference compound]: the “Avg % Inhibition” value in assay [1] (62.5 μg/ml) is recorded as −12%; in assay [1] (250 μg/ml), −10%. In addition, the “Avg % Inhibtion” value in assay [2] (62.5 μg/ml) is 10.1%; in assay [2] (250 μg/ml) it was 0%.

Consider `O=C(O[C@@H]1Cc2c(O)cc(O)cc2O[C@H]1c1cc(O)c(O)c(O)c1)c1cc(O)c(O)c(O)c1` [Gallocatechin gallate, reference compound], for which the “Avg % Inhibition” value in assay [1] (62.5 μg/ml) is 7%; in assay [1] (250 μg/ml) it was 14.1%. The results for the “Avg % Inhibtion” value in assay [2] (62.5 μg/ml) and in assay [2] (250 μg/ml) were 54.6% and 33.6%, respectively.

For `CNC[C@H](Cc1ccc2ccccc2c1)N(C)C[C@@H](Cc1ccc2ccccc2c1)NC(=O)c1cc(O)c(O)c(O)c1` [L-NapAla, D-Napala, Gallic Acid], the “Av % Inhibition” value in assay [1] (62.5 μg/ml) was 22.0%; in assay [1] (250 μg/ml), 44.6%; in assay [2] (62.5 μg/ml), −3%; in assay [2] (250 μg/ml), 7%.

`CNC[C@H](Cc1ccc2ccccc2c1)N(C)C[C@H](Cc1ccc(Cl)cc1)NC(=O)c1cc(O)c(O)c(O)c1` [L-NapAla, L-pCl-Phe, Gallic Acid]: the “Av % Inhibition” value in assay [1] (62.5 μg/ml) came out at 26.7%; in assay [1] (250 μg/ml), 54.7%; in assay [2] (62.5 μg/ml), 31.5%; in assay [2] (250 μg/ml), 46.9%.

With `CCCCCCCCCCCCOC(=O)c1cc(O)c(O)c(O)c1` [Lauryl gallate, reference compound], the “Avg % Inhibition” value in assay [1] (62.5 μg/ml) was 20.4%; in assay [1] (250 μg/ml), 47.9%. Further, the entries for the “Avg % Inhibtion” value in assay [2] (62.5 μg/ml) and in assay [2] (250 μg/ml) were 39.1% and 22.5%, respectively.
